What was measured:
[1] = system: myelin oligodendrocyte glycoprotein (MOG)-induced experimental autoimmune encephalomyelitis (EAE); assay: Mouse model of MOG-induced experimental autoimmune encephalomyelitis (EAE), prophylactic and therapeutic dosing; type: in vivo; conditions: 75 mg/kg P.O. BID Days 8-25 (therapeutic)
Protocol: Adult female C57BL/6J mice were randomly allocated to experimental groups and allowed to acclimatize for one week prior to commencing the study. On Day 0 and Day 7, animals were administered an emulsion (200 μL/mouse) of MOG35-55 and complete Freund's adjuvant (CFA). […]. On Day 0 (immediately post-MOG injection) and Day 2, animals were administered with pertussis toxin (PTx, 500 ng/mouse) prepared in phosphate buffered saline (PBS, 100 μL/mouse) by intra-peritoneal injection.
Treatment was performed twice daily (BID) prophylactically starting on Day 1 for groups 1, 2, and 4, and therapeutically starting on day 8 for group 3. All experimental groups were n=12. The administration interval was 12 hours and the administration volume was 5 mL/kg.
Because body weight loss is known to be an important hallmark of EAE occurring in correspondence of the appearance of the first symptoms, animals were weighed daily from the day of immunization (Day 0) until the end of the experiment. The changes in body weight observed over the course of the experiment for the different experimental groups, presented as mean±SEM, are summarized in FIG. 7. […]
From Day 0 until the end of the experiment, animals were scored daily for clinical signs of EAE to include paresis and paralysis affecting the tail and the limbs. […]

[2] = system: myelin oligodendrocyte glycoprotein (MOG)-induced experimental autoimmune encephalomyelitis (EAE); assay: Variable dose mouse model of MOG-induced experimental autoimmune encephalomyelitis (EAE); type: in vivo; conditions: vehicle BID 18 days, Log-rank p=0.039
Protocol: 60 female C57BL/6 mice were housed for an acclimation period of 1 week. 53 mice were enrolled in the study after randomization with a body weight between 18.3-22.3 g with an average body weight of 19.7 g per group on Study day minus 1.
For induction of MOG-EAE, MOG35-55 peptide was administered in phosphate buffered saline (PBS) and complete Freund's adjuvant (CFA). MOG35-55 peptide in PBS was emulsified in a 1:1 (v:v) mixture with CFA via homogenization in an Omni BeadRuptor Elite using 7 mL tubes pre-filled with 2.8 mm ceramic beads. Briefly, MOG35-55 peptide was brought up to 1 mg/mL in cold PBS, and 1.75 mL aliquoted into each homogenization tube. An equal volume (1.75 mL) CFA was then added for a total volume of 3.5 mL, on ice. Two rounds of homogenization were performed using a speed of 3.5 m/s; 3 cycles of 45 seconds with 30 seconds dwell at 4° C., followed by a third round with 2 cycles of 45 seconds and 30 seconds dwell at 4° C. In between each round, samples were placed on ice for ˜15 minutes. Tubes were spun down at 300 g for 1 minute at 4° C. Mice were anesthetized under isoflurane anesthesia. 100 μL (50 μg MOG35-55) was then injected subcutaneously into the flank of each leg (for a total of two injections and 100 μg MOG35-55). On Study Day 0 and Day 2, pertussis toxin was formulated at a concentration of […] in PBS, and 100 μL (200 ng) injected into each animal by intraperitoneal injection.
Treatment was performed BID starting on Day 1 for groups 2, 3, and 4, and once daily (QD) starting on day 1 for group 5. All experimental groups were n=12. The administration interval was 12 hours and the administration volume was 5 mL/kg.
The Body condition score of all animals was monitored on study Days 0, 7, 10 and then every other day. […]
Disease severity was scored on Day 0, 7 and every 2 days beginning on Day 10 onward for all groups. […]
Disease incidence rate was calculated as percentage of total animals per group starting from day 0 until termination on study day 28. […]

[3] = Accelerated stability tests of polymorph Form II (HPLC purity and potency); type: physicochemical
Protocol: High-performance liquid chromatography (HPLC) was performed using the following instrument and/or conditions.

COc1ccc(-c2nc([C@@H](C)Sc3nc(N)cc(N)n3)c(C)s2)cc1OCCN1CCOCC1 [Compound 1, (R)-2-((1-(2-(4-methoxy-3-(2-morpholinoethoxy)phenyl)-5-methylthiazol-4-yl)ethyl)thio)pyrimidine-4,6-diamine]
animals showing no symptoms at all (complete remission) ([1]; after Day 20): ~27% | disease incidence (highest reached) ([1]; on Day 19, vehicle reached 100% on Day 13): ~92% | median time to disease ([2]; 25 mg/kg BID PO): 18 days | median time to disease ([2]; 75 mg/kg BID PO): 19 days | median time to disease ([2]; 100 mg/kg QD PO): 20 days

COc1ccc(-c2nc([C@@H](C)Sc3nc(N)cc(N)n3)c(C)s2)cc1OCCN1CCOCC1 [polymorph Form II, (R)-2-((1-(2-(4-methoxy-3-(2-morpholinoethoxy)phenyl)-5-methylthiazol-4-yl)ethyl)thio)pyrimidine-4,6-diamine]
Potency (%) ([3]; 25° C./60% RH for 1 week): 98.7% | Purity (area %) ([3]; 25° C./60% RH for 1 week): 98.75 area % | Potency (%) ([3]; 40° C./75% RH for 1 week): 98.6% | Purity (area %) ([3]; 40° C./75% RH for 1 week): 98.66 area % | Potency (%) ([3]; 60° C. for 1 week): 98.6% | Purity (area %) ([3]; 60° C. for 1 week): 98.75 area % | Potency (%) ([3]; API standard (no exposure)): 98.6% | Purity (area %) ([3]; API standard (no exposure)): 98.22 area %

Reference: patent US11446307B2, “Crystalline forms of a deoxycytidine kinase inhibitor and uses thereof” (Trethera Corporation, priority 2020, dated 2022)
